These results are taken from patent publication US6590123B2, “Aminobenzoic acid derivatives having anti-tumorigenic activity, methods of making and using the same” (Mount Sinai School of Medicine of New York University, priority 1998, dated 2003).

Values after ≈ are worked out from the molar mass of the structure shown.

The test system of experiment [1] is repolymerized microtubules. Description: Inhibition of microtubule disassembly by spectrophotometry, cell free system. Format: biochemical, calf. Particulars: 20 μg/ml (66 μM). As for the experimental part:
Purified tubulin was purchased from Sigma (St. Louis, Mo.). The effects of compounds 6, 7, 8, 9, paclitaxel and vinblastine on the microtubule assembly-disassembly process were determined using conditions recommended by the vendor. For assembly inhibition, 100 μl tubulin solution (500-600 μg protein/ml) was mixed gently with 400 μl reaction buffer containing 0.1 M MES (2-[N-morpholino]ethane sulfonic acid), 1 mM EGTA ([…]-N,N,N′,N′-tetraacetic acid), 0.5 mM MgCl2, 0.1 mM EDTA and 2.5 M gycerol at 37° C. Compounds 6, 7, 8, and 9 were next added to each sample at final concentrations of 10, 10, 1 and 1 μg/ml, respectively. After adding GTP to each sample to a final concentration of 1 mM, the microtubule assembly process was monitored by measuring the change of absorbance (OD) at 350 nm on a spectrophotometer (Ultrospec III, Pharmacia LKB, Uppsala, Sweden). […] Changes of absorbance (OD) were monitored at 350 nm for 30 min until the OD values in the controls returned to the starting level, i.e., when the assembly-disassembly cycle was completed.
Purified tubulin from calf brain was purchased from Sigma (St. Louis, Mo.). The effects of 3-BAABU (3-bromoacetoamido, benzoylurea) on the microtubule assembly-disassembly process were determined using the conditions recommended by the vendor. […]

In experiment [2] the test system is B16 mouse melanoma. Nature of the experiment: Cytotoxicity, ID50 and ID90 (monolayer culture). The experiment is classed as cell-based. Particulars: B16, Murine melanoma, 48 hr. As for the experimental part: (§1) All cell lines, with the exception of human SP cells, a biphenotypic leukemic cell line (reference 10 & 11), were obtained from the American Tissue Culture Collection (Rockville, Md.) and were cultured under conditions recommended by the vendor. EL4 murine leukemia lymphoma (as suspension) and B16 mouse melanoma (as monolayer) cell lines were cultivated in RPMI-1640 medium supplemented with 10% fetal bovine serum (FBS), penicillin (250 μ/ml) and streptomycin (250 μml); MOT, a non-tumor proliferative myocardial cell line from rat and NIH 3T3, a non-malignant and proliferative fibroblast cell line from mouse were both cultured as monolayers in Dulbecco's Modified Eagle's Medium with 10% heat inactivated calf serum. CEM, a human acute T-cell leukemic cell line, was cultured as a suspension in Iscove's Dulbecco's Medium with 10% heat inactivated fetal calf serum and antibiotics. PC-3 cells, a human prostate cancer line, was cultured as monolayers in RPMI-1640 with 10% FBS. SP cells were cultured in Minimum Eagle's Medium plus 10% FBS. Human peripheral blood lymphocytes (PBL) were isolated from whole blood of healthy individuals by Ficoll-Hypaque gradient method. […]
(§2) The ID50 and ID90 was determined in duplicate in every set of experiments, and each experiment was repeated 3 times under identical conditions. […]

Experiment [3] relates to PC-3 cells. Description: Cytotoxicity, ID50 and ID90 (monolayer culture). The experiment is classed as cell-based. Particulars: PC-3, Human Prostate Cancer, 48 hr. As for the experimental part:
as §1, §2

For experiment [4], the system named is PC-3 cells. Nature of the experiment: Block of mitosis, morphology by microscopy. Also on record: key to Block of Mitosis: +Block of mitosis was observed; −no mitotic blocking. Format: cell-based, human. As for the experimental part: (§3) All cell lines, with the exception of human SP cells, a biphenotypic leukemic cell line (reference 10 & 11), were obtained from the American Tissue Culture Collection (Rockville, Md.) and were cultured under conditions recommended by the vendor. EL4 murine leukemia lymphoma (as suspension) and B16 mouse melanoma (as monolayer) cell lines were cultivated in RPMI-1640 medium supplemented with 10% fetal bovine serum (FBS), penicillin (250 μ/ml) and streptomycin (250 μml); MOT, a non-tumor proliferative myocardial cell line from rat and NIH 3T3, a non-malignant and proliferative fibroblast cell line from mouse were both cultured as monolayers in Dulbecco's Modified Eagle's Medium with 10% heat inactivated calf serum. CEM, a human acute T-cell leukemic cell line, was cultured as a suspension in Iscove's Dulbecco's Medium with 10% heat inactivated fetal calf serum and antibiotics. PC-3 cells, a human prostate cancer line, was cultured as monolayers in RPMI-1640 with 10% FBS. SP cells were cultured in Minimum Eagle's Medium plus 10% FBS. Human peripheral blood lymphocytes (PBL) were isolated from whole blood of healthy individuals by Ficoll-Hypaque gradient method. Isolated PBL were maintained in RPMI-1640 in the presence of 10% homologous plasma at 37° C. All cells were incubated at 37° C. in 5% C02. Cells in exponential growth were used.
(§4) Cell samples on slides were prepared by a Cytospin centrifuge (Shandon Southern Products Ltd, England) at 700 g for 5 min. The slides were air dried, fixed in methanol and stained with Giemsa (Harleco, N.J.) at room temperature for 15 min. Alterations of nuclei, membranes and morphological features were observed by light microscopy. Cells in mitotic phase were recognized by the appearance of their chromosomes dispersed in the cytoplasm, and by the disappearance of nuclear membrane. Apoptotic-cells were identified using previously defined criteria, i.e., shrinkage in cell size, chromatin condensation and fragmentation of the nucleus into discrete masses (references 2 & 3). Necrotic cells were differentiated from apoptotic cells by observing swollen cytoplasm and the disappearance of cell membrane prior to the destruction of the nucleus.

A further experiment relates to SP cells. Nature of the experiment: Block of mitosis, morphology by microscopy. Also on record: key to Block of Mitosis: +Block of mitosis was observed; −no mitotic blocking. Format: cell-based, human. As to the method: as §3, §4
Experiment [5] concerns B16 mouse melanoma. Description: Block of mitosis, morphology by microscopy. Format: cell-based. Details: key to Block of Mitosis: +Block of mitosis was observed; −no mitotic blocking. As for the experimental part:
as §3, §4

Experiment [6] has as its system Human peripheral blood lymphocytes (PBL). Nature of the experiment: Block of mitosis, morphology by microscopy. Also on record: key to Block of Mitosis: +Block of mitosis was observed; −no mitotic blocking. The experiment is classed as cell-based. As to the method:
as §3, §4

A further experiment concerns MOT myocardial cell line. Nature of the experiment: Block of mitosis, morphology by microscopy. Also on record: key to Block of Mitosis: +Block of mitosis was observed; −no mitotic blocking. Format: cell-based, rat. As for the experimental part:
as §3, with “used. […]” for “used.”

Turning to `NC(=O)NC(=O)c1cccc(NC(=O)CBr)c1` [Compound 8, 3-Bromoacetoamido, benzoylurea], the “effect on microtubular depolymerization” value in experiment [1] is recorded as “not influenced”. Besides, the ID90 in the experiment with B16 mouse melanoma [2] turned out to be 0.76 ± 0.09 µg/mL (≈ 2.53 µM); with PC-3 cells [3], 0.95 ± 0.17 µg/mL (≈ 3.17 µM). Besides, the “Block of Mitosis” value in the experiment on PC-3 cells [4] (PC-3, Human Prostate Cancer, 37° C. for 48 hr) is “+”; in the experiment on SP cells (SP, Human MDS, 37° C. for 48 hr, arrest = mitotic cells >50% vs controls), “+”; in the experiment with B16 mouse melanoma [5] (B16, Murine melanoma, 37° C. for 48 hr) it was “+”; in experiment [6] (Normal human PBL (non-tumor), 37° C. for 48 hr), “−”; with MOT myocardial cell line (MOT, Rat myocardiac cells (non-tumor), 37° C. for 48 hr) it was “−”. Besides, the morphologic effect entry is “induced mitotic arrest” in the experiment on PC-3 cells [4] (PC-3 human prostate cancer cells, 0.1 μg/ml, 24 hr at 37° C.); “induced mitotic arrest” with SP cells (SP human lymphoid leukemic cells, 0.025 μg/ml, 24 hr at 37° C.); “induced mitotic arrest” in the experiment with B16 mouse melanoma [5] (murine melanoma cells, 0.25 μg/ml, 24 hr at 37° C.); “no effect” in experiment [6] (normal human lymphocytes, 2 μg/ml, 24 hr at 37° C.); “no effect” in the experiment with MOT myocardial cell line (rat myocardial cells, 1.0 μg/ml, 24 hr at 37° C.).
